Here are results for 26 compounds from US12180226B2, “Spirotricycle RIPK1 inhibitors and methods of uses thereof” (Merck Sharp & Dohme LLC, priority 2021, dated 2024).

In general, EC50 refers to the concentration at which the effect is half-maximal.

Where a name gives a salt, the structure may show the parent alone. A value given as a limit tells only on which side of the number the result lay.

Chain of RIPK1 (recombinant GST-RIPK1 kinase domain, residues 1-327) (Q13546 1-327): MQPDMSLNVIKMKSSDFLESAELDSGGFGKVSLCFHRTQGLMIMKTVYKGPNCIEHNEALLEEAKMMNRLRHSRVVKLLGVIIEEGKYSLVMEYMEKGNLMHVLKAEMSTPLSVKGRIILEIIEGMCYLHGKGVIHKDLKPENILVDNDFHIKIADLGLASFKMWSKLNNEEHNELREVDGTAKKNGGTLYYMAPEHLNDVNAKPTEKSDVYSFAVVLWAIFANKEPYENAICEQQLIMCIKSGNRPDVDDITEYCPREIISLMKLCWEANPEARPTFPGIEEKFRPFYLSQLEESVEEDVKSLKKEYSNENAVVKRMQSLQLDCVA

This experiment addresses RIPK1 (recombinant GST-RIPK1 kinase domain, residues 1-327) (Homo sapiens (Human), UniProt Q13546). The experiment in a line: RIPK1-ADP-Glo Enzymatic Assay. Particulars: ADP-Glo; 25 nM GST-RIPK1, 300 μM ATP; assay lower limit ~25 nM; read-out: RIPK1 V0 Ec50. Type of experiment: biochemical. Summed up:
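GST-tagged kinase domain (residues 1-327, Sf21-expressed), 25 nM, pre-incubated 30 min with compound at ambient temperature, then reacted 150 min with 300 μM ATP and 3 μM dephosphorylated MBP in HEPES pH 7.3 buffer. ADP measured by ADP-Glo luminescence; EC50 from ten-point titration (top 100000 nM), four-parameter fit.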
A general note: ADP-Glo first removes unused ATP, then detects ADP through luciferase.
For `CC(C)NC(=O)c1nc(N2CCC3(CC2)O[C@@H]2CC[C@@H](c4cc(F)cc(F)c4)N2C3=O)ncc1F` [Example 7.14, 2-[(5′S,7a′R)-5′-(3,5-difluorophenyl)-3′-oxotetrahydro-1H,3′H-spiro[piperidine-4,2′-pyrrolo[2,1-b][1,3]oxazol]-1-yl]-5-fluoro-N-(propan-2-yl)pyrimidine-4-carboxamide], the EC50 came to 0.0698 µM.
The same measure for `O=C(c1c(F)cc(F)cc1F)N1CCC2(CC1)O[C@@H]1CC[C@@H](c3ccccc3)N1C2=O` [Example 5.8, (5′S,7a′R)-5′-phenyl-1-(2,4,6-trifluorobenzene-1-carbonyl)tetrahydro-3′H-spiro[piperidine-4,2′-pyrrolo[2,1-b][1,3]oxazol]-3′-one]: less than 0.025 µM; for `O=C1N2[C@@H](CC[C@H]2c2ccccc2)OC12CCN(c1ccc(-c3nnc(C(F)(F)F)o3)cn1)CC2` [Example 4.165, (5′S,7a′R)-5′-phenyl-1-{5-[5-(trifluoromethyl)-1,3,4-oxadiazol-2-yl]pyridin-2-yl}tetrahydro-3′H-spiro[piperidine-4,2′-pyrrolo[2,1-b] [1,3]oxazol]-3′-one]: 0.144 µM.
`Cc1cc(C)cc(C(=O)N2CCC3(CC2)O[C@@H]2CC[C@@H](c4cccc(F)c4)N2C3=O)c1` [Example 6.132, (5′S,7a′R)-1-(3,5-dimethylbenzene-1-carbonyl)-5′-(3-fluoro-phenyl)tetrahydro-3′H-spiro[piperidine-4,2′-pyrrolo[2,1-b][1,3]oxazol]-3′-one]: the EC50 was determined as 0.0717 µM.
The same measure for `O=C(c1nc(N2CCC3(CC2)O[C@@H]2CC[C@@H](c4cc(F)cc(F)c4)N2C3=O)ncc1F)N1CC(F)C1` [Example 7.7, (5′S,7a′R)-5′-(3,5-difluorophenyl)-1-[5-fluoro-4-(3-fluoroazetidine-1-carbonyl)pyrimidin-2-yl]tetrahydro-3′H-spiro[piperidine-4,2′-pyrrolo[2,1-b][1,3]oxazol]-3′-one]: less than 0.025 µM; for `Cc1ccc(C(=O)N2CCC3(CC2)O[C@@H]2CC[C@@H](c4cc(F)cc(F)c4)N2C3=O)cn1` [Example 6.69, (5′S,7a′R)-5′-(3,5-difluorophenyl)-1-(6-methylpyridine-3-carbonyl)tetrahydro-3′H-spiro[piperidine-4,2′-pyrrolo[2,1-b] [1,3]oxazol]-3′-one]: 0.0468 µM.
Turning to `O=C(c1c(F)cc(F)cc1F)N1CCC2(CC1)O[C@@H]1CC[C@@H](c3cc(F)cc(F)c3)N1C2=O` [Example 5.2, (5′S,7a′R)-5′-(3,5-difluoro-phenyl)-1-(2,4,6-trifluoro-benzene-1-carbonyl)tetra-hydro-3′H-spiro[piperi-dine-4,2′-pyrrolo[2,1-b] [1,3]oxazol]-3′-one], the EC50 was less than 0.025 µM.
The same measure for `O=C(c1ccnnc1)N1CCC2(CC1)O[C@@H]1CC[C@@H](c3cc(F)cc(F)c3)N1C2=O` [Example 6.99, (5′S,7a′R)-5′-(3,5-difluorophenyl)-1-(pyridazine-4-carbon-yl)tetrahydro-3′H-spiro[piperidine-4,2′-pyrrolo[2,1-b][1,3]-oxazol]-3′-one]: 0.146 µM; for `O=C1N2[C@@H](CC[C@H]2c2cc(F)cc(F)c2)OC12CCN(c1cccc3ncnn13)CC2` [Example 13.2, (5′S,7a′R)-1-([1,2,4]triazolo[1,5-a]pyridin-5-yl)-5′-(3,5-difluorophenyl)tetrahydro-3′H-spiro[piperidine-4,2′-pyrrolo[2,1-b]oxazol]-3′-one, TFA salt]: less than 0.025 µM.
With `O=C(c1ccc(F)cn1)N1CCC2(CC1)O[C@@H]1CC[C@@H](c3cc(F)cc(F)c3)N1C2=O` [Example 6.14, (5′S,7a′R)-5′-(3,5-difluorophenyl)-1-(5-fluoropyridine-2-carbonyl)tetrahydro-3′H-spiro[piperidine-4,2′-pyrrolo[2,1-b] [1,3]oxazol]-3′-one], the EC50 came to 0.03 µM.
As for `Cc1ccc([C@@H]2CC[C@H]3OC4(CCN(C(=O)c5ccccc5)CC4)C(=O)N32)c(F)c1` [Example 17.11, (5′S,7a′R)-1-benzoyl-5′-(2-fluoro-4-methylphenyl)tetrahydro-3′H-spiro[piperidine-4,2′-pyrrolo[2,1-b]oxazol]-3′-one], the EC50 is less than 0.025 µM.
For `CC(C)Oc1cccc(C(=O)N2CCC3(CC2)O[C@@H]2CC[C@@H](c4cc(F)cc(F)c4)N2C3=O)n1` [Example 6.90, (5′S,7a′R)-5′-(3,5-difluorophenyl)-1-{6-[(propan-2-yl)oxy]-pyridine-2-carbonyl} tetrahydro-3′H-spiro [piperidine-4,2′-pyrrolo[2,1-b][1,3]-oxazol]-3′-one], the EC50 stood at 0.0361 µM.
Take `COc1ccc(N2CCC3(CC2)O[C@@H]2CC[C@@H](c4ccccc4)N2C3=O)n2ncnc12` [Example 19.8, (5′S,7a′R)-1-(8-methoxy[1,2,4]triazolo [1,5-a]pyridin-5-yl)-5′-phenyltetrahydro-3′H-spiro[piperidine-4,2′-pyrrolo[2,1-b][1,3]oxazol]-3′-one]: the EC50 was found to be 0.394 µM.
As for `O=C1N2[C@@H](CC[C@H]2c2ccccc2)OC12CCN(c1ccc(OC3CCC3)nn1)CC2` [Example 11.9, (5′S,7a′R)-1-[6-(cyclobutyloxy)pyridazin-3-yl]-5′-phenyltetrahydro-3′H-spiro[piperidine-4,2′-pyrrolo[2,1-b][1,3]oxazol]-3′-one], the EC50 worked out at 0.907 µM.
The same measure for `O=C1N2[C@@H](CC[C@H]2c2ccccc2)OC12CCN(c1ccc(Cl)c3ncnn13)CC2` [Example 15.3, (5′S,7a′R)-1-(8-chloro-[1,2,4]triazolo[1,5-a]pyridin-5-yl)-5′-phenyltetrahydro-3′H-spiro[piperidine-4,2′-pyrrolo[2,1-b]oxazol]-3′-one, TFA salt]: less than 0.025 µM; for `COc1nc(N2CCC3(CC2)O[C@@H]2CC[C@@H](c4cc(F)cc(F)c4)N2C3=O)ncc1F` [Example 4.21, (5′S,7a′R)-5′-(3,5-difluorophenyl)-1-(5-fluoro-4-methoxypyrimidin-2-yl)tetrahydro-3′H-spiro[piperidine-4,2′-pyrrolo[2,1-b] [1,3]oxazol]-3′-one]: less than 0.025 µM; for `COc1cc(N2CCC3(CC2)O[C@@H]2CC[C@@H](c4cc(F)cc(F)c4)N2C3=O)nc(C)c1C#N` [Example 4.69, 6-[(5′S,7a′R)-5′-(3,5-difluorophenyl)-3′-oxotetrahydro-1H,3′H-spiro[piperidine-4,2′-pyrrolo[2,1-b] [1,3]oxazol]-1-yl]-4-methoxy-2-methylpyridine-3-carbonitrile]: 0.114 µM.
Regarding `COc1cc(-n2ccc(N3CCC4(CC3)O[C@@H]3CC[C@@H](c5ccccc5)N3C4=O)n2)ccn1` [Example 11.6, (5′S,7a′R)-1-[1-(2-methoxypyridin-4-yl)-1H-pyrazol-3-yl]-5′-phenyltetrahydro-3′H-spiro[piperidine-4,2′-pyrrolo[2,1-b][1,3]oxazol]-3′-one], the EC50 was determined as 0.0314 µM.
`O=C1N2[C@@H](CC[C@H]2c2cccc(F)c2)OC12CCN(c1cc(F)ccn1)CC2` [Example 4.126, (5′S,7a′R)-5′-(3-fluorophenyl)-1-(4-fluoropyridin-2-yl)tetrahydro-3′H-spiro[piperidine-4,2′-pyrrolo[2,1-b] [1,3]oxazol]-3′-one]: the EC50 turned out to be 0.0467 µM.
With `Cc1cnc([C@@H]2CC[C@H]3OC4(CCN(C(=O)c5ccccc5)CC4)C(=O)N32)cn1` [Example 6.143, (5′S,7a′R)-1-(benzene-carbonyl)-5′-(5-meth-ylpyrazin-2-yl)tetra-hydro-3′H-spiro [piperidine-4,2′-pyrrolo[2,1-b][1,3]oxazol]-3′-one], the EC50 came out at 0.0568 µM.
For the compound `Cc1cccc(C(=O)N2CCC3(CC2)O[C@@H]2CC[C@@H](c4cccc(F)c4)N2C3=O)c1F` [Example 6.119, (5′S,7a′R)-1-(2-fluoro-3-methylbenzene-1-carbonyl)-5′-(3-fluoro-phenyl)tetrahydro-3′H-spiro[piperidine-4,2′-pyrrolo[2,1-b][1,3]oxazol]-3′-one], the EC50 was less than 0.025 µM.
Consider `COc1ccnc(C(=O)N2CCC3(CC2)O[C@@H]2CC[C@@H](c4cc(F)cc(F)c4)N2C3=O)c1` [Example 6.91, (5′S,7a′R)-5′-(3,5-difluorophenyl)-1-(4-methoxypyridine-2-carbonyl)tetrahydro-3′H-spiro[piperidine-4,2′-pyrrolo[2,1-b] [1,3]oxazol]-3′-one], for which the EC50 was 0.706 µM.
The same measure for `O=C1N2[C@@H](CC[C@H]2c2ccccc2)OC12CN(c1ccnc3c(F)cnn13)C2` [Example 4.96, (5′S,7a′R)-1-(3-fluoropyrazolo[1,5-a]pyrimidin-7-yl)-5′-phenyltetrahydro-3′H-spiro[azetidine-3,2′-pyrrolo[2,1-b]oxazol]-3′-one, TFA salt]: less than 0.025 µM.
Take `O=C(c1ccccc1)N1CCC2(CC1)O[C@@H]1[C@@H](O)C[C@@H](c3ccccc3)N1C2=O` [Example 6.136]: the EC50 is 0.136 µM.
As to `Cc1ccc(C(=O)N2CCC3(CC2)O[C@@H]2CC[C@@H](c4cc(F)cc(F)c4)N2C3=O)nc1C` [Example 6.93, (5′S,7a′R)-5′-(3,5-difluorophenyl)-1-(5,6-dimethylpyridine-2-carbonyl)tetrahydro-3′H-spiro[piperidine-4,2′-pyrrolo[2,1-b] [1,3]oxazol]-3′-one], the EC50 worked out at 0.192 µM.
Turning to `O=C(c1ccncn1)N1CCC2(CC1)O[C@@H]1CC[C@@H](c3cc(F)cc(F)c3)N1C2=O` [Example 6.63, (5′S,7a′R)-5′-(3,5-difluorophenyl)-1-(pyrimidine-4-carbon-yl)tetrahydro-3′H-spiro[piperidine-4,2′-pyrrolo[2,1-b][1,3]-oxazol]-3′-one], the EC50 stood at 0.0579 µM.
